Results as given in publication PMC12499601 (Pulmonary pharmacology & therapeutics, 2024).
Several values for one entry are separate records, joined by “and”; a condition that tells them apart may be missing. Equal entries are not always repeated. Where two headings read alike, the source gives them in different places.

Key:
[1] = type: in vivo, human; settings: capillary plasma, pwCF, ivacaftor 150mg twice daily steady state, n = 8; for Cmax / half-life: human, oral, 150 mg
Metabolite:parent ratio = type: in vivo, human; settings: capillary plasma, metabolite:Iva, 12 hour dosing interval
[2] = test system: human nasal epithelial cells; test: Capillary plasma versus nasal epithelial cell concentrations; type: in vivo; settings: nasal epithelial cell lysate of participants taking ivacaftor
16HBE cells = test: Uptake of metabolites into 16HBE cells at ALI, LC-MS/MS of cellular lysate; type: in vitro ADME, human; settings: for mean concentration detected in the cells: 16HBE at ALI, 1000nM of the compound in basolateral media, 48 hours; for crossing of the plasma membrane of airway epithelial cells: 16HBE in vitro model
HNEs, HBEs, and CFBEs = type: in vitro ADME, human; settings: ALI cultures, 1000nM of Iva basolateral, 48 hours; for metabolite detected in apical or basolateral media: media prior to cell lysis (data not shown)
[3] = pwCF; cited from earlier work
CFTR = settings: cited from earlier work
[4] = type: in vivo, human; settings: plasma of a participant taking ivacaftor
5-HT2C receptor = settings: cited from earlier work
β3-adrenergic receptor = settings: cited from earlier work
δ-opioid receptor = settings: cited from earlier work
dopamine transporter = settings: cited from earlier work
CYP3A4 = settings: in vitro; cited from earlier work
nasal brushings lysate = settings: pwCF; cited from earlier work

| Compound | Cavg, Mean (SD) [1] | Cavg, Median (min, max) [1] | Cmax, Mean (SD) [1] | Cmax, Median (min, max) [1] | Cmin, Mean (SD) [1] | Cmin, Median (min, max) [1] | T1/2, Mean (SD) [1] | T1/2, Median (min, max) [1] | Tmax, Mean (SD) [1] | Tmax, Median (min, max) [1] | mean metabolite:parent ratio (MPR) (Metabolite:parent ratio) | mean concentration detected in the cells (16HBE cells) | crossing of the plasma membrane of airway epithelial cells (16HBE cells) | metabolite detected in cells treated with Iva (HNEs, HBEs, and CFBEs; cell lysate) | metabolite detected in apical or basolateral media (HNEs, HBEs, and CFBEs) | Cavg, venous plasma [3] [ng/mL] | activity relative to parent Iva (CFTR) | potentiation activity relative to that of Iva (CFTR) | effect on CYP3A4 activity (CYP3A4) | other results |
| --- | --- | --- | --- | --- | --- | --- | --- | --- | --- | --- | --- | --- | --- | --- | --- | --- | --- | --- | --- | --- |
| CC(C)(C)c1cc(C(C)(C)C(=O)O)c(O)cc1NC(=O)c1c[nH]c2ccccc2c1=O [M6-Iva, ivacaftor carboxylate] | 797 (430) ng/mL | 842 (231, 1418) ng/mL | 927 (456) ng/mL | 918 (265, 1630) ng/mL | 522 (365) ng/mL | 527 (5.8, 1070) ng/mL | 8.8 (6.6) h | 8.8 (4.2, 13.5) h | 6.9 (3.7) h | 8 (4, 10) h | 1.6 | 15 ng/ml and 0.04 μM | does not readily cross the plasma membrane | No M1-Iva and M6-Iva were detected | no M1-Iva and M6-Iva were detected | 3821 | inactive metabolite | 1/50 | – | detection in cellular samples [2]: found only in one cellular sample; average concentration in the cellular lysate (16HBE cells; 16HBE, 5000nM of the compound, 48 hours (data not shown)): 81 ng/ml and 0.19 μM |
| ivacaftor hydrate [Iva-hydrate] | – | – | – | – | – | – | – | – | – | – | – | – | – | – | – | – | – | – | – | detection in plasma (qualitative) [4]: small peaks |
| CC(C)(C)c1cc(C(C)(C)C)c(NC(=O)c2c[nH]c3ccccc3c2=O)cc1O [Iva, ivacaftor] | 532 (343) ng/mL | 416(221, 1206) ng/mL | – | – | 352 (245) ng/mL | 287 (113, 813) ng/mL | – | – | – | 5 (4, 6) h | – | – | – | – | – | – | – | – | reduce CYP3A4 activity | Cmax ([1]; Mean (SD)): 744 ng/mL; Cmax ([1]; Median (min, max)): 552 ng/mL; half-life ([1]; T1/2, Mean (SD)): 7.9 h; half-life ([1]; T1/2, Median (min, max)): 6.7 h; parent compound detected in cells (HNEs, HBEs, and CFBEs; cell lysate): detected in all the cell types; affinity (5-HT2C receptor): significant affinity; affinity (β3-adrenergic receptor): significant affinity; affinity (δ-opioid receptor): significant affinity; affinity (dopamine transporter): significant affinity |
| CC(C)(C)c1cc(C(C)(C)CO)c(O)cc1NC(=O)c1c[nH]c2ccccc2c1=O [M1-Iva, hydroxymethyl ivacaftor] | 726 (365) ng/mL | 607 (256, 1170) ng/mL | 1036 (520) ng/mL | 913 (402, 1750) ng/mL | 501 (228) ng/mL | 475 (55, 839) ng/mL | 9.2 (4.29) h | 8.7 (3.35, 16.4) h | 5.3 (0.7) h | 5 (4, 6) h | 1.5 | 1000 ng/ml and 2.5 μM | readily enters the airway epithelial cells | No M1-Iva and M6-Iva were detected | no M1-Iva and M6-Iva were detected | 3156 | 1/6 | 1/6 | stronger inhibition | mean concentration in nasal brushings lysate (nasal brushings lysate): 696 ng/mL |
